Assay results from US8415312B2, “Compound which is a nystatin derivative” (Biosergen AS, priority 2007, dated 2013).
Values after ≈ are worked out from the molar mass of the structure shown.

Experiments:
Assay in all cases: Antifungal susceptibility study (1), broth microdilution MIC
Assay type in all cases: cell-based
[1] = tested on: Candida albicans ATCC 14053; conditions: lowest concentration preventing any visible growth, read at 48 hours, 35° C., RPMI 1640 pH 7.0
Method: (§1) ACROS ORGANICS, New Jersey, USA), pH 7.0, was used in study. […] Then these DMSO solutions were diluted 50-fold (first 10-fold and then 5-fold) in the test medium. […] The solutions were prepared just before using. The organisms used for susceptibility testing were: Candida albicans ATCC 14053, Cryptococcus humicolus ATCC 9949, Aspergillus niger ATCC 16404 and Fusarium oxysporum VKM F-140 (=CMI, IMI 90473). Organisms were stored on potato dextrose agar […] 50% glycerol solution at -70° C. For short-term storage, stock cultures were stored on agar […] 4° C. The cultures of yeasts were sub-cultured onto Sabouraud dextrose (SAB) agar and incubated for 24 hours at 35° C. (Candida albicans) or for 48 hours at 25° C. (Cryptococcus humicolus) to obtain a freshly grown pure culture. The cultures of moulds were sub-cultured onto potato dextrose agar and incubated for 7 days at 35° C. […] (Fusarium oxysporum) to ensure maximum sporulation. […] Inoculum quantitation was performed by plating dilution of the inoculum on Sabouraud dextrose agar to determine the viable number of CFU per milliliter. Sterile 96-well flat-bottomed microtitration plates were used for testing. 100 μl of diluted inocula were dispensed into each microdilution well containing 100 μl of the double dilutions of compounds. Drug-free and yeast/mould-free controls were included. Microdilution trays were incubated at 35° C. (Candida albicans and moulds) or 25° C. (Cryptococcus humicolus) without agitation and observed for the presence or absence of visible growth. […] Minimal inhibitory concentrations (MICs) were read at 48 hours.

[2] = tested on: Cryptococcus humicolus ATCC 9949; conditions: lowest concentration preventing any visible growth, read at 48 hours, 25° C., RPMI 1640 pH 7.0
Method: as §1

[3] = tested on: Aspergillus niger ATCC 16404; conditions: lowest concentration preventing any visible growth, read at 48 hours, 35° C., RPMI 1640 pH 7.0
Method: (§2) ACROS ORGANICS, New Jersey, USA), pH 7.0, was used in study. […] Then these DMSO solutions were diluted 50-fold (first 10-fold and then 5-fold) in the test medium. […] The solutions were prepared just before using. The organisms used for susceptibility testing were: Candida albicans ATCC 14053, Cryptococcus humicolus ATCC 9949, Aspergillus niger ATCC 16404 and Fusarium oxysporum VKM F-140 (=CMI, IMI 90473). Organisms were stored on potato dextrose agar […] 50% glycerol solution at -70° C. For short-term storage, stock cultures were stored on agar […] 4° C. The cultures of yeasts were sub-cultured onto Sabouraud dextrose (SAB) agar and incubated for 24 hours at 35° C. (Candida albicans) or for 48 hours at 25° C. (Cryptococcus humicolus) to obtain a freshly grown pure culture. The cultures of moulds were sub-cultured onto potato dextrose agar and incubated for 7 days at 35° C. […] (Fusarium oxysporum) to ensure maximum sporulation. […] Finally, the suspensions were vortexed for 15 s to break up clumps of cells and then filtered through four layers of sterile gauze. The densities of conidial spore suspensions was measured at 530 nm and adjusted to 0.09-0.11 for Aspergillus niger and 0.15-0.17 for Fusarium oxysporum. These suspensions were diluted 1:50 with the standard medium. […] Inoculum quantitation was performed by plating dilution of the inoculum on Sabouraud dextrose agar to determine the viable number of CFU per milliliter. Sterile 96-well flat-bottomed microtitration plates were used for testing. 100 μl of diluted inocula were dispensed into each microdilution well containing 100 μl of the double dilutions of compounds. Drug-free and yeast/mould-free controls were included. Microdilution trays were incubated at 35° C. (Candida albicans and moulds) or 25° C. (Cryptococcus humicolus) without agitation and observed for the presence or absence of visible growth. […] Minimal inhibitory concentrations (MICs) were read at 48 hours.

[4] = tested on: Fusarium oxysporum VKM F-140; conditions: lowest concentration preventing any visible growth, read at 48 hours, 35° C., RPMI 1640 pH 7.0
Method: as §2

Row | Structure (SMILES) | MIC Candida albicans ATCC 14053 [1] [µg/mL] | MIC Cryptococcus humicolus ATCC 9949 [2] [µg/mL] | MIC Aspergillus niger ATCC 16404 [3] [µg/mL] | MIC Fusarium oxysporum VKM F-140 [4] [µg/mL]
1 | CC1C=CC=CC=CC=CC=CC=CC=CC(OC2OC(C)C(O)C(NCC3(O)OCC(O)C(OC4OC(CO)C(O)C(O)C4O)C3O)C2O)CC2OC(O)(CC(O)C(O)CCC(O)CC(O)CC(O)CC(=O)OC(C)C(C)C1O)CC(O)C2C(=O)O (stereo not drawn) [Compound 19] | 2 (≈ 1.6 µM) | 2 (≈ 1.6 µM) | 2 (≈ 1.6 µM) | 8 (≈ 6.41 µM)
2 | CC1C=CC=CC=CC=CC=CC=CC=CC(OC2OC(C)C(O)C(NC(=O)c3ccc(CN)cc3)C2O)CC2OC(O)(CC(O)C(O)CCC(O)CC(O)CC(O)CC(=O)OC(C)C(C)C1O)CC(O)C2C(=O)NCCCO (stereo not drawn) [Compound 40] | 2 (≈ 1.79 µM) | 2 (≈ 1.79 µM) | 4 (≈ 3.59 µM) | 16 (≈ 14.4 µM)
3 | CC1C=CC=CC=CC=CC=CC=CC=CC(OC2OC(C)C(O)C(NCc3ccc(N(C)C)cc3)C2O)CC2OC(O)(CC(O)C(O)CCC(O)CC(O)CC(O)CC(=O)OC(C)C(C)C1O)CC(O)C2C(=O)NCCCN(C)C (stereo not drawn) [Compound 32] | 2 (≈ 1.75 µM) | 2 (≈ 1.75 µM) | 2 (≈ 1.75 µM) | 8 (≈ 7.01 µM)
4 | CC1C=CC=CC=CC=CC=CC=CC=CC(OC2OC(C)C(O)C(NC(=O)c3ccc(CN)cc3)C2O)CC2OC(O)(CC(O)C(O)CCC(O)CC(O)CC(O)CC(=O)OC(C)C(C)C1O)CC(O)C2C(=O)NCCCN(C)C (stereo not drawn) [Compound 35] | 2 (≈ 1.75 µM) | 2 (≈ 1.75 µM) | 4 (≈ 3.5 µM) | 4 (≈ 3.5 µM)
5 | CC1C=CC=CC=CC=CC=CC=CC=CC(OC2OC(C)C(O)C(N(Cc3ccc(N(C)C)cc3)Cc3ccc(N(C)C)cc3)C2O)CC2OC(O)(CC(O)C(O)CCC(O)CC(O)CC(O)CC(=O)OC(C)C(C)C1O)CC(O)C2C(=O)O (stereo not drawn) [Compound 20] | 2 (≈ 1.68 µM) | 2 (≈ 1.68 µM) | 4 (≈ 3.36 µM) | >16
6 | CC1C=CC=CC=CC=CC=CC=CC=CC(OC2OC(C)C(O)C(NC(=O)C(N)CCCCN)C2O)CC2OC(O)(CC(O)C(O)CCC(O)CC(O)CC(O)CC(=O)OC(C)C(C)C1O)CC(O)C2C(=O)NCCCN(C)C [Compound 33, N-L-lysyl S44HP DMAP-Amide] | 1 (≈ 0.88 µM) | 1 (≈ 0.88 µM) | 1 (≈ 0.88 µM) | 2 (≈ 1.76 µM)
7 | CC1C=CC=CC=CC=CC=CC=CC=CC(OC2OC(C)C(O)C(NCC3(O)OCC(O)C(O)C3O)C2O)CC2OC(O)(CC(O)C(O)CCC(O)CC(O)CC(O)CC(=O)OC(C)C(C)C1O)CC(O)C2C(=O)NCCCO (stereo not drawn) [Compound 36] | 4 (≈ 3.5 µM) | 4 (≈ 3.5 µM) | 4 (≈ 3.5 µM) | 16 (≈ 14 µM)
8 | CC1C=CC=CC=CC=CC=CC=CC=CC(OC2OC(C)C(O)C(NCc3ccc(N(C)C)cc3)C2O)CC2OC(O)(CC(O)C(O)CCC(O)CC(O)CC(O)CC(=O)OC(C)C(C)C1O)CC(O)C2C(=O)NCCCO (stereo not drawn) [Compound 37] | 2 (≈ 1.79 µM) | 1 (≈ 0.897 µM) | 2 (≈ 1.79 µM) | 4 (≈ 3.59 µM)
9 | CC1O[C@@H](O[C@H]2/C=C/C=C/C=C/C=C/C=C/C=C/C=C/[C@H](C)[C@@H](O)[C@@H](C)[C@H](C)OC(=O)C[C@H](O)C[C@H](O)C[C@H](O)CC[C@@H](O)[C@H](O)C[C@]3(O)C[C@H](O)[C@@H](C(=O)O)[C@H](C2)O3)[C@H](O)C(NC(=O)c2ccc(CN)cc2)[C@@H]1O (stereo partly drawn) [Compound 47, N-(4-Aminomethylbenzoyl) S44HP] | 2 (≈ 1.89 µM) | 2 (≈ 1.89 µM) | 4 (≈ 3.78 µM) | 16 (≈ 15.1 µM)

Next, values leading:

Row | MIC Candida albicans ATCC 14053 [1] [µg/mL] | MIC Cryptococcus humicolus ATCC 9949 [2] [µg/mL] | MIC Aspergillus niger ATCC 16404 [3] [µg/mL] | MIC Fusarium oxysporum VKM F-140 [4] [µg/mL] | Structure (SMILES)
10 | 1 (≈ 0.901 µM) | 1 (≈ 0.901 µM) | 2 (≈ 1.8 µM) | 4 (≈ 3.61 µM) | CC1C=CC=CC=CC=CC=CC=CC=CC(OC2OC(C)C(O)C(NC(=O)C(N)CCCCN)C2O)CC2OC(O)(CC(O)C(O)CCC(O)CC(O)CC(O)CC(=O)OC(C)C(C)C1O)CC(O)C2C(=O)NCCCO (stereo not drawn) [Compound 38]
11 | 2 (≈ 2.04 µM) | 4 (≈ 4.08 µM) | 4 (≈ 4.08 µM) | 4 (≈ 4.08 µM) | CC1C=CC=CC=CC=CC=CC=CC=CC(OC2OC(C)C(O)C(NCCCN)C2O)CC2OC(O)(CC(O)C(O)CCC(O)CC(O)CC(O)CC(=O)OC(C)C(C)C1O)CC(O)C2C(=O)O (stereo not drawn) [Compound 21]
12 | 1 (≈ 0.938 µM) | 1 (≈ 0.938 µM) | 2 (≈ 1.88 µM) | 16 (≈ 15 µM) | CC1C=CC=CC=CC=CC=CC=CC=CC(OC2OC(C)C(O)C(NC(=O)CN(C)C)C2O)CC2OC(O)(CC(O)C(O)CCC(O)CC(O)CC(O)CC(=O)OC(C)C(C)C1O)CC(O)C2C(=O)NCCCO (stereo not drawn) [Compound 39]
13 | 2 (≈ 1.93 µM) | 2 (≈ 1.93 µM) | 4 (≈ 3.86 µM) | 8 (≈ 7.71 µM) | COC(=O)C(NC(=O)C1C(O)CC2(O)CC(O)C(O)CCC(O)CC(O)CC(O)CC(=O)OC(C)C(C)C(O)C(C)C=CC=CC=CC=CC=CC=CC=CC(OC3OC(C)C(O)C(N)C3O)CC1O2)C(C)C (stereo not drawn) [Compound 8]
14 | 2 | 2 | 4 | 4 | CC1O[C@@H](O[C@H]2/C=C/C=C/C=C/C=C/C=C/C=C/C=C/[C@H](C)[C@@H](O)[C@@H](C)[C@H](C)OC(=O)C[C@H](O)C[C@H](O)C[C@H](O)CC[C@@H](O)[C@H](O)C[C@]3(O)C[C@H](O)[C@@H](C)[C@H](C2)O3)[C@H](O)C(N)[C@@H]1O.Cl (stereo partly drawn) [Compound 53, Compound 1 Hydrochloride]
15 | 2 | 2 | 2 | 2 | CC1O[C@@H](O[C@H]2/C=C/C=C/C=C/C=C/C=C/C=C/C=C/[C@H](C)[C@@H](O)[C@@H](C)[C@H](C)OC(=O)C[C@H](O)C[C@H](O)C[C@H](O)CC[C@@H](O)[C@H](O)C[C@]3(O)C[C@H](O)[C@@H](C)[C@H](C2)O3)[C@H](O)C(N)[C@@H]1O.O=C(O)C(Cl)Cl (stereo partly drawn) [Compound 57]
16 | 1 | 2 | 2 | 4 | CC1O[C@@H](O[C@H]2/C=C/C=C/C=C/C=C/C=C/C=C/C=C/[C@H](C)[C@@H](O)[C@@H](C)[C@H](C)OC(=O)C[C@H](O)C[C@H](O)C[C@H](O)CC[C@@H](O)[C@H](O)C[C@]3(O)C[C@H](O)[C@@H](C(=O)NCCN(C)C)[C@H](C2)O3)[C@H](O)C(NC(=O)[C@@H](N)CCCCN)[C@@H]1O.Cl (stereo partly drawn) [Compound 44]
17 | 2 (≈ 1.98 µM) | 2 (≈ 1.98 µM) | 4 (≈ 3.96 µM) | 8 (≈ 7.93 µM) | COC(=O)C(C)NC(=O)C1C(O)CC2(O)CC(O)C(O)CCC(O)CC(O)CC(O)CC(=O)OC(C)C(C)C(O)C(C)C=CC=CC=CC=CC=CC=CC=CC(OC3OC(C)C(O)C(N)C3O)CC1O2 (stereo not drawn) [Compound 10]
18 | 1 (≈ 0.915 µM) | 2 (≈ 1.83 µM) | 1 (≈ 0.915 µM) | 4 (≈ 3.66 µM) | CC1C=CC=CC=CC=CC=CC=CC=CC(OC2OC(C)C(O)C(NC(=O)CN(C)C)C2O)CC2OC(O)(CC(O)C(O)CCC(O)CC(O)CC(O)CC(=O)OC(C)C(C)C1O)CC(O)C2C(=O)NCCCN(C)C (stereo not drawn) [Compound 34]
